# Results: ChEMBL document CHEMBL1914295, “Synthesis and biological evaluation of some novel triazol-3-ones as antimicrobial agents” (2011)
# What was measured:
# Type in all cases: functional
# Settings in all cases: read-out: IZ
# [1] = tested on: Fusarium solani; experiment: Antifungal activity against Fusarium solani at 100 ug/ml after 48 hrs by disc diffusion method
# [2] = tested on: Candida albicans; experiment: Antifungal activity against Candida albicans at 100 ug/ml after 48 hrs by disc diffusion method
# [3] = tested on: Escherichia coli; experiment: Antibacterial activity against Escherichia coli at 200 ug/ml after 24 hrs by disc diffusion method
# [4] = tested on: Escherichia coli; experiment: Antibacterial activity against Escherichia coli at 100 ug/ml after 24 hrs by disc diffusion method
# [5] = tested on: Staphylococcus aureus; experiment: Antibacterial activity against Staphylococcus aureus at 100 ug/ml after 24 hrs by disc diffusion method
# [6] = tested on: Bacillus subtilis; experiment: Antibacterial activity against Bacillus subtilis at 200 ug/ml after 24 hrs by disc diffusion method
# [7] = tested on: Klebsiella pneumoniae; experiment: Antibacterial activity against Klebsiella pneumoniae at 200 ug/ml after 24 hrs by disc diffusion method
# [8] = tested on: Aspergillus niger; experiment: Antifungal activity against Aspergillus niger at 100 ug/ml after 48 hrs by disc diffusion method
# [9] = tested on: Candida albicans; experiment: Antifungal activity against Candida albicans at 200 ug/ml after 48 hrs by disc diffusion method
# [10] = tested on: Fusarium solani; experiment: Antifungal activity against Fusarium solani at 200 ug/ml after 48 hrs by disc diffusion method
# [11] = tested on: Aspergillus niger; experiment: Antifungal activity against Aspergillus niger at 200 ug/ml after 48 hrs by disc diffusion method
# [12] = tested on: Staphylococcus aureus; experiment: Antibacterial activity against Staphylococcus aureus at 200 ug/ml after 24 hrs by disc diffusion method
# [13] = tested on: Klebsiella pneumoniae; experiment: Antibacterial activity against Klebsiella pneumoniae at 100 ug/ml after 24 hrs by disc diffusion method
# [14] = tested on: Bacillus subtilis; experiment: Antibacterial activity against Bacillus subtilis at 100 ug/ml after 24 hrs by disc diffusion method
SMILES,zone of inhibition at 100 µg/mL [1] [mm],zone of inhibition at 100 µg/mL [2] [mm],zone of inhibition at 200 µg/mL [3] [mm],zone of inhibition at 100 µg/mL [4] [mm],zone of inhibition at 100 µg/mL [5] [mm],zone of inhibition at 200 µg/mL [6] [mm],zone of inhibition at 200 µg/mL [7] [mm],zone of inhibition at 100 µg/mL [8] [mm],zone of inhibition at 200 µg/mL [9] [mm],zone of inhibition at 200 µg/mL [10] [mm],zone of inhibition at 200 µg/mL [11] [mm],zone of inhibition at 200 µg/mL [12] [mm],zone of inhibition at 100 µg/mL [13] [mm],zone of inhibition at 100 µg/mL [14] [mm]
CC1Sc2sccc2-c2nc(-n3cnn(C)c3=O)sc21 (stereo not drawn),24,22,21,18,14,19,19,20,24,26,23,16,16,16
CCn1ncn(-c2nc3c(s2)C(C)Sc2sccc2-3)c1=O (stereo not drawn),28,26,27,22,25,31,26,23,29,31,26,29,24,28
CC1Sc2sccc2-c2nc(-n3cnn(C(C)C)c3=O)sc21 (stereo not drawn),17,16,18,15,14,15,16,17,21,19,22,16,14,13
CC(C)Cn1ncn(-c2nc3c(s2)C(C)Sc2sccc2-3)c1=O (stereo not drawn),16,17,14,12,12,16,12,16,21,20,18,15,10,13
CC1Sc2sccc2-c2nc(-n3cnn(CC#N)c3=O)sc21 (stereo not drawn),15,14,13,11,13,18,14,16,18,18,19,17,11,15
COCCCn1ncn(-c2nc3c(s2)C(C)Sc2sccc2-3)c1=O (stereo not drawn),39,36,25,22,23,33,24,37,39,44,41,28,21,31
O=C(N[C@H](CO)[C@H](O)c1ccc([N+](=O)[O-])cc1)C(Cl)Cl [CHLORAMPHENICOL],,,44,40,35,41,45,,,,,39,42,38
CC(=O)N1CCN(c2ccc(OCC3COC(Cn4ccnc4)(c4ccc(Cl)cc4Cl)O3)cc2)CC1 (stereo not drawn) [KETOCONAZOLE],38,36,,,,,,41,39,42,44,,,
